Test results from patent US4990499A, “Anti-herpes simplex virus activity of 5-alkoxymethyl-2'-deoxycytidimes and their 5-monophosphates” (priority 1989, dated 1991).

Columns and labels:
[1] = test system: Herpes simplex virus type 1 (HSV-1); test: Antiviral activity against HSV-1, viral plaque reduction (ED50); assay type: cell-based; conditions: for reversal of antiviral activity of MMdCyd, order of potency: FIGS. 4 to 6
Procedure: (§1) Infected cells were treated with different concentrations of MMdCyd and the concentration required to reduce viral plaque formation by 50%, i.e. ED50, was determined.
(§2) ^a ED50 : Concentration required to reduce viral plaque formatio
Vero cells were infected with the KOS strain of HSV-1. The compound of compounds indicated in Table 2, below, and are shown graphically in FIGS. 1, (H4 dUrd) and 2 (H4 Urd).
^a Antiviral assays were carried out using Vero cells. All compounds
were added immediately after virus infection.
(§3) The antiviral activity of MMdCyd in the presence of H4 dUrd was determined against several strains of HSV-1 and HSV-2.
Vero cells were infected with HSV-1, strain 76 and treated with MMdCyd at different times post virus infection.
The antiviral activity, ^a cyctotoxicity* and antiviral indices of MMdCyd in the presence of H4 dUrd, dGuo and H4 dUrd+dGuo were determined.
^a Antiviral assays were carried out using Vero cells. Compounds were
added immediately after virus infection. Virus HSV1, strains KOS and 76;
KOS, virus input = 50 PFU

[2] = target: T1, human DNA polymerase alpha (Homo sapiens, UniProt P09884); test: In vitro DNA synthesis by human DNA polymerase alpha ([3H]dAMP incorporation); assay type: biochemical
T1 sequence (P09884 1-1462): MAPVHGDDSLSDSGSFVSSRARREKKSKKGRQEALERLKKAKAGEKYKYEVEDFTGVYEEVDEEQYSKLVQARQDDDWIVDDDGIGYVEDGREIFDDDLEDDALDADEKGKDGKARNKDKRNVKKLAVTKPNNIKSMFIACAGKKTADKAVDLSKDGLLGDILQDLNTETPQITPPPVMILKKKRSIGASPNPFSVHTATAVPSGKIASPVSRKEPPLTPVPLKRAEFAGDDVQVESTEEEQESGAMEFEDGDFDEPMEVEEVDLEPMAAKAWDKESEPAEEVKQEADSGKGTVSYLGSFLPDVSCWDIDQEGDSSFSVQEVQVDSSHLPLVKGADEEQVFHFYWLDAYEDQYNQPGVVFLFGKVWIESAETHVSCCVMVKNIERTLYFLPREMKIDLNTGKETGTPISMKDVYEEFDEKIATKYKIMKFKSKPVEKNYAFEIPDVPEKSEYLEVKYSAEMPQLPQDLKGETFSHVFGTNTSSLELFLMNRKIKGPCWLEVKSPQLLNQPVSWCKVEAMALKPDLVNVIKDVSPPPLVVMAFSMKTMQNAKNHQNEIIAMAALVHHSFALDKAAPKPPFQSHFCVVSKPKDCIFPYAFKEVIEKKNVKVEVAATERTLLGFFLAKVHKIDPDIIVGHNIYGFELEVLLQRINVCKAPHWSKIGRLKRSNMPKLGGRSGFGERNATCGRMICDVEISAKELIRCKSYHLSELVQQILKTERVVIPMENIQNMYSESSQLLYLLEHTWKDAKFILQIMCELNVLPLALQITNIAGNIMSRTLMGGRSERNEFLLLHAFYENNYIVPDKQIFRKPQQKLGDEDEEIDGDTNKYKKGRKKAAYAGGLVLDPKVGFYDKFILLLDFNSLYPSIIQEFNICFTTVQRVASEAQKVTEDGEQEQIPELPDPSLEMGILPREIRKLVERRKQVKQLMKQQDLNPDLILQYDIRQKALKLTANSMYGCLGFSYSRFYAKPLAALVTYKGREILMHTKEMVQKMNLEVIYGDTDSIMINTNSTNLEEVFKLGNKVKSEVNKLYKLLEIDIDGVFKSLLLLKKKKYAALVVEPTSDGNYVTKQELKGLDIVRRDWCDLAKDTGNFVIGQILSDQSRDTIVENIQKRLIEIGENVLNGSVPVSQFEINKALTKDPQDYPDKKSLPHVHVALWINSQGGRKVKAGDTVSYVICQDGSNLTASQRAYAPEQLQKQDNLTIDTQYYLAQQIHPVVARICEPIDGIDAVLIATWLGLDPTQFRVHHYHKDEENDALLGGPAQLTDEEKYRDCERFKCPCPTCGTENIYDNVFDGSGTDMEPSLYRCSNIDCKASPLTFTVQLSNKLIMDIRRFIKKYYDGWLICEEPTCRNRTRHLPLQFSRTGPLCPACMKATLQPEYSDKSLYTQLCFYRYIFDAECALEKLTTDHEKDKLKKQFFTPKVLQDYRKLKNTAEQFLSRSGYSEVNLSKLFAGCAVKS
Procedure: A comparison of in vitro DNA synthesis by viral and cellular DNA polymerases with MMdCTP as an alternative substrate. The results are shown graphically in FIG. 14 and compare HSV-1 DNA polymerase and human DNA polymerase alpha activity.
(§4) The number of pmoles of [^3 H] dAMP incorporated into control samples (`O`MMdCTP) was subtracted from pmoles of test samples. Other nucleotides,dATP, dTTP and dGTP were in excess (10 μm). Each assay was performed in triplicate.
(§5) ^+ unlabeled dNTP concentration (10 μM).
(§6) ^++ 0.2 μM of [^3 H]dATP was used in each assay.

[3] = target: HSV-1 DNA Polymerase (Human herpesvirus 1, UniProt P04293); test: In vitro DNA synthesis by HSV-1 DNA polymerase ([3H]dAMP incorporation); assay type: biochemical, Herpes simplex virus type 1; conditions: HSV-1 DNA polymerase
Chain of HSV-1 DNA Polymerase (P04293 whole entry): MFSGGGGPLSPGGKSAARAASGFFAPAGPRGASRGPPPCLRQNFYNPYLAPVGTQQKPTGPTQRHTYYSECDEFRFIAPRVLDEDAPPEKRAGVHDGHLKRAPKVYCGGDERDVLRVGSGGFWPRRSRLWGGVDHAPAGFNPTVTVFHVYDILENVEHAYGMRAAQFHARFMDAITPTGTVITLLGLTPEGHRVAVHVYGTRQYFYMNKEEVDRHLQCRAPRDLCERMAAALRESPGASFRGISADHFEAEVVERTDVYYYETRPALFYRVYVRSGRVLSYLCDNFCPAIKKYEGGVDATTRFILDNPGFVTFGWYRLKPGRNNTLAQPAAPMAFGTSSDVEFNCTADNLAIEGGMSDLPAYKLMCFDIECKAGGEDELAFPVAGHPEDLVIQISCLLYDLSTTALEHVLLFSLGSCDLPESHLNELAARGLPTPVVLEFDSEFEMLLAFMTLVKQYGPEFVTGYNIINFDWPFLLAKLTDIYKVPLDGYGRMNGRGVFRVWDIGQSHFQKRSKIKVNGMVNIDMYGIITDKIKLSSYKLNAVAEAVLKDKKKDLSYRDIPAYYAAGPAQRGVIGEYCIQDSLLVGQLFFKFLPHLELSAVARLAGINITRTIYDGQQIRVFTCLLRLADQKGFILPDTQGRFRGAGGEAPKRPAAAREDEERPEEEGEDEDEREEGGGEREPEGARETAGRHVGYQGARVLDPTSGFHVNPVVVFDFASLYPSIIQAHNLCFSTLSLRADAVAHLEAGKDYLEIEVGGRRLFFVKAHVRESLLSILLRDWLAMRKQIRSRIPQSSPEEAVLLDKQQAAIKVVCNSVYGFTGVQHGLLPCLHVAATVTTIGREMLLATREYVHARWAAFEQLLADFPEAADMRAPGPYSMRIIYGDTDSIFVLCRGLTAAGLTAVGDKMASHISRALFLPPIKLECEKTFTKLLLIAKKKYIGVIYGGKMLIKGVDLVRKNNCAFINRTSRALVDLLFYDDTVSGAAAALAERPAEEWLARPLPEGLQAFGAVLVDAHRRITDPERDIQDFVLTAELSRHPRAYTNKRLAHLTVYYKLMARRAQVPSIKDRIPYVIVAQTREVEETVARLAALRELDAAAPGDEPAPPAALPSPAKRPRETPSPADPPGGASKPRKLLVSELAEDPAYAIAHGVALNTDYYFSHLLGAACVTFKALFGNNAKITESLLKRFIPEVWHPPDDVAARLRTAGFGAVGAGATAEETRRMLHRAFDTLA
Procedure: The relative in vitro DNA synthesis by HSV-1 DNA Polymerase using dCTP or MMdCTP as the rate limiting substrate was determined. The synthesis was followed by assaying an incorporation of tritium labelled dAMP.
+ unlabelled dNTP concentration 10 μM
++ Radio labelled [^3 H]dAMP conc 0.2 μM
*One hundred percent activity represents 27355 cpm of [^3 H]dAMP
as §4, §5, §6

[4] = target: E. coli DNA Polymerase 1 (Escherichia coli, UniProt P00582); test: In vitro DNA synthesis by E. coli DNA polymerase 1 ([3H]dAMP incorporation); assay type: biochemical
Chain of E. coli DNA Polymerase 1 (P00582 whole entry): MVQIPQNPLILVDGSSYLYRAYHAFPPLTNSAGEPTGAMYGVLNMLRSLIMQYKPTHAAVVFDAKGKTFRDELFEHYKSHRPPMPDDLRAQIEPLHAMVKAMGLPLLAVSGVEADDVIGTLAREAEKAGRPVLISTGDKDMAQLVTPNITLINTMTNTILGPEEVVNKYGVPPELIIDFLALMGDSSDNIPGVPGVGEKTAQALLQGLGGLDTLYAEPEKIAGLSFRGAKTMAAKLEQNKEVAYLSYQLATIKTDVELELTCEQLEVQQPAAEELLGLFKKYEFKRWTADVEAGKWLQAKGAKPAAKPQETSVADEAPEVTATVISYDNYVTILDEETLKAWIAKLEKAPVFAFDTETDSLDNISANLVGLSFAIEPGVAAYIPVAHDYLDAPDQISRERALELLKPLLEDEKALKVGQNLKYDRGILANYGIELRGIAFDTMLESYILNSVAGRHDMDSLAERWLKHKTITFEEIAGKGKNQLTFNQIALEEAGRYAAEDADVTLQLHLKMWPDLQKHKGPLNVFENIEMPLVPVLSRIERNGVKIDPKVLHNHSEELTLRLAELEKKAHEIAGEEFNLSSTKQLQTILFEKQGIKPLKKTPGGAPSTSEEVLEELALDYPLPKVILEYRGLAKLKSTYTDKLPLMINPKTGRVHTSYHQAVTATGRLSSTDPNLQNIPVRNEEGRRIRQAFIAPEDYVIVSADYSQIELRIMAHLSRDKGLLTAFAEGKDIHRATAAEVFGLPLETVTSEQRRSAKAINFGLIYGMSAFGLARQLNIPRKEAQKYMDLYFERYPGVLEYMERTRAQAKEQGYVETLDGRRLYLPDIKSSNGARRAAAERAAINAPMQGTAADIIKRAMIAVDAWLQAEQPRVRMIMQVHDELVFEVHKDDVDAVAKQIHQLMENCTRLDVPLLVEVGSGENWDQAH
Procedure: ^a Enzymatic assays were carried out with 1 unit of Sigma E. coli DNA
Polymerase 1. dTTP, dGTP and [^3 H] dATP were non limiting (5 μM).
^b Values obtained are net after subtracting "0" samples which did no
^c Amount of NMeMMdCTP used with each concentration of dCTP was 0.625

[5] = test system: Herpes simplex virus type 2 (HSV-2); test: Antiviral activity against HSV-2, viral plaque reduction (ED50); assay type: cell-based; conditions: HSV-2
Procedure: as §1, §2, §3
^a Antiviral assays were carried out using Vero cells. Virus input 50
^b ED50 : Concentration required to reduce viral plaque formatio

[6] = test system: Deoxynucleoside Triphosphate (dNTP) Pools in Uninfected Vero Cells; test: Deoxynucleoside triphosphate (dNTP) pools in uninfected (mock-infected) Vero cells; assay type: cell-based
Procedure: Vero cells were treated with MMdCyd, H4 dUrd and MMdCyd+H4 dUrd. The cells were then assayed for the presence of deoxynucleoside triphosphates. Untreated Vero cells were also assayed for the presence of deoxynucleoside triphosphates, to provide a control.
^a Cells were mock infected for one hour. Different treatments were
^b Values are means of at least two assays of triplicate cell
(§7) Vero cells and HSV-infected Vero cells were treated with dGUO and dGUO and H4 dUrd. The cells were then assayed for the presence of deoxynucleoside triphosphates. Untreated Vero cells were also assayed for the presence of deoxynucleoside triphophate to provide a control.
Vero cells were treated with N-methyl-MMdCyd. The cells were then assayed for dNTP pools.

[7] = test system: Deoxynucleoside Triphosphate (dNTP) Pools in Vero Cells Infected with Herpes Simplex Virus Type 1; test: Deoxynucleoside triphosphate (dNTP) pools in HSV-1 infected Vero cells; assay type: cell-based; conditions: Table 16, HSV-1 KOS infected Vero, treatment 7 hours, ± S.E.
Procedure: Example 9 was repeated, except that the Vero cells subjected to the treatment had all been infected with HSV-1 KOS strain prior to the treatment.
^a Cells were infected with 10 PFU/cell of HSV1 KOS strain for one
hour. Treatments were given for seven hours.
^a Cells were infected with 10 PFU/cell of HSV1, KOS strain after
^b H4 dUrd in MEM was added immediately after adsorption and
^c H4 dUrd in MEM was added immediately after adsorption and
as §7
^c Cells were infected with 10 PFU/cell of HSV1 strain KOS for one

[8] = test system: Herpes simplex virus type 1 (HSV-1); test: Antiviral activity against HSV-1, viral plaque reduction (ED50); assay type: cell-based; conditions: FIG. 13; HSV-1 KOS and 76, Vero, 20 PFU
[9] = Table 16, uninfected Vero, treatment 7 hours, ± S.E.

O=c1ccn([C@H]2C[C@H](O)[C@@H](CO)O2)c(=O)[nH]1 [deoxyuridine, 2'-deoxyuridine, reference compound]
reversal of antiviral activity of MMdCyd, order of potency [1]: deoxythymidine>deoxyuridine>deoxycytidine

Nc1ccn([C@H]2C[C@H](O)[C@@H](COP(=O)(O)OP(=O)(O)OP(=O)(O)O)O2)c(=O)n1 [dCTP, 2'-deoxycytidine triphosphate, reference compound]
[^3 H]dAMP incorporation representing 100% activity ([2]; 10 μM dCTP, Human DNA polymerase): 4059 cpm
incorporation into DNA / substrate ([2]; Human α-DNA polymerase): excellent substrate for DNA synthesis
[^3 H]dAMP incorporation representing 100% activity ([3]; 10 μM dCTP): 27355 cpm
incorporation into DNA / substrate [3]: excellent substrate for DNA synthesis
cpm [^3 H]dAMP incorporated ([4]; nucleotide 0.039 μM (mixture: dCTP at this concentration + N-MeMMdCTP 0.625 μM)): 35 cpm
cpm [^3 H]dAMP incorporated ([4]; nucleotide 0.078 μM (mixture: dCTP at this concentration + N-MeMMdCTP 0.625 μM)): 118 cpm
cpm [^3 H]dAMP incorporated ([4]; nucleotide 0.156 μM (mixture: dCTP at this concentration + N-MeMMdCTP 0.625 μM)): 216 cpm
cpm [^3 H]dAMP incorporated ([4]; nucleotide 0.312 μM (mixture: dCTP at this concentration + N-MeMMdCTP 0.625 μM)): 527 cpm
cpm [^3 H]dAMP incorporated ([4]; nucleotide 0.625 μM (mixture: dCTP at this concentration + N-MeMMdCTP 0.625 μM)): 1171 cpm
cpm [^3 H]dAMP incorporated ([4]; nucleotide 1.25 μM (mixture: dCTP at this concentration + N-MeMMdCTP 0.625 μM)): 1603 cpm
cpm [^3 H]dAMP incorporated ([4]; nucleotide 2.50 μM (mixture: dCTP at this concentration + N-MeMMdCTP 0.625 μM)): 1554 cpm
cpm [^3 H]dAMP incorporated ([4]; nucleotide 5.0 μM (mixture: dCTP at this concentration + N-MeMMdCTP 0.625 μM)): 2032 cpm

Cc1cn([C@H]2C[C@H](O)[C@@H](CO)O2)c(=O)[nH]c1=O [deoxythymidine, 2'-deoxyribosylthymidine (thymidine), reference compound]
reversal of antiviral activity of MMdCyd, order of potency [1]: deoxythymidine>deoxyuridine>deoxycytidine

Cc1cn([C@H]2C[C@H](O)[C@@H](CO)O2)c(=O)nc1N [MedCyd, 5-methyl-2'-deoxycytidine, reference compound]
EC50 [1]: > 530 µM
antiviral activity ([1]; up to 128 μg/ml, HSV-1): devoid of activity

CNc1nc(=O)n([C@H]2C[C@H](O)[C@@H](COP(=O)(O)O)O2)cc1COC [N-Me-MMdCMP, 5-Methoxymethyl-N^4-methyl-2'-deoxycytidine-5'-monophosphate]
EC50 [1]: > 1800 µM
antiviral activity ([1]; HSV-1): completely inert
antiviral activity [5]: completely inert

COCc1cn([C@H]2C[C@H](OC(C)=O)[C@@H](COC(C)=O)O2)c(=O)nc1N [Di-AC-MMdCyd, 5-methoxymethyl-3',5'-diacetyl-2'-deoxycytidine]
EC50 [1]: 535 µM
potency against HSV-1 relative to parent compound (times lower) ([1]; vs MMdCyd, cell culture): approximately 20 times

COCc1cn([C@H]2C[C@H](O)[C@@H](COP(=O)(O)O)O2)c(=O)nc1N [MMdCMP, 5-methoxymethyl-2'-deoxycytidine monophosphate]
EC50 [1]: 10 to 14 µM
antiviral activity ([1]; HSV-1): potent inhibitor of HSV-1

O=C1NC(O)CCN1[C@@H]1O[C@H](CO)[C@@H](O)[C@H]1O (stereo partly drawn) [H4 Urd, tetrahydrouridine, reference compound]
potentiation of the activity of MMdCyd (fold) ([1]; H4 Urd with MMdCyd): approximately 2 fold

CNc1nc(=O)n([C@H]2C[C@H](O)[C@@H](CO)O2)cc1COC [N-Me-MMdCyd, 5-methoxymethyl-N4-methyl-2'-deoxycytidine]
EC50 [1]: > 1800 µM
antiherpes activity ([1]; summary statement): completely devoid of antiherpes activity
antiviral activity ([1]; up to 1796 μM): devoid of antiviral activity
dATP pool [6, 9]: 32.2 ± 2.5 .rho. moles/10^6 cells
dCTP pool [6, 9]: 17.3 ± 1.32 .rho. moles/10^6 cells
dGTP pool [6, 9]: 36.3 ± 1.67 .rho. moles/10^6 cells
dTTP pool [6, 9]: 38.6 ± 1.22 .rho. moles/10^6 cells
effect on dNTP pools ([6]; Vero cells): did not cause perturbation of dNTP pools to any significant degree
dATP pool [7]: 7.4 ± 0.4 .rho. moles/10^6 cells
dCTP pool [7]: 18 ± 1.08 .rho. moles/10^6 cells
dGTP pool [7]: 58.9 ± 2.22 .rho. moles/10^6 cells
dTTP pool [7]: 419 ± 10.6 .rho. moles/10^6 cells

Nc1ccn([C@H]2C[C@H](O)[C@@H](CO)O2)c(=O)n1 [deoxycytidine, 2'-deoxycytidine, reference compound]
reversal of antiviral activity of MMdCyd, order of potency [1]: deoxythymidine>deoxyuridine>deoxycytidine
effect on dose-response curve of MMdCyd ([1]; equimolar concentrations, FIG. 5): parallel upward shift

Nc1ncnc2c1ncn2[C@H]1C[C@H](O)[C@@H](CO)O1 [Deoxyadenosine, reference compound]
effect on antiviral activity of MMdCyd [8]: no effect on antiherpes activity of MMdCyd
